Data as given in the NIST ThermoML archive (doi:10.1016/j.jct.2004.12.014).
Numbers after ± are expanded uncertainties.

Tests used:
[1] = xn = mol fraction of the nth substance listed; conditions: 318.15 K, 101 kPa, Liquid
[2] = excess molar enthalpy (molar enthalpy of mixing); xn = mol fraction of the nth substance listed; conditions: 318.15 K, 101 kPa, Liquid

CCCCCCCCCCCCCCCCC [heptadecane] + CCCOC(=O)CC
Conditions	excess molar enthalpy [kcal/mol]	excess molar volume [m3/mol]
[1], x2 = 0.0801	–	2.62e-07 ± 1.7e-08
[1], x2 = 0.1272	–	4.01e-07 ± 1.7e-08
[1], x2 = 0.2396	–	6.78e-07 ± 1.9e-08
[1], x2 = 0.3349	–	8.74e-07 ± 2e-08
[1], x2 = 0.4168	–	9.74e-07 ± 2e-08
[1], x2 = 0.4924	–	1.046e-06 ± 2e-08
[1], x2 = 0.5597	–	1.06e-06 ± 2e-08
[1], x2 = 0.6205	–	1.048e-06 ± 2e-08
[1], x2 = 0.6702	–	1.016e-06 ± 2e-08
[1], x2 = 0.7236	–	9.42e-07 ± 2e-08
[1], x2 = 0.7691	–	8.65e-07 ± 2e-08
[1], x2 = 0.81	–	7.81e-07 ± 1.9e-08
[1], x2 = 0.8486	–	6.76e-07 ± 1.9e-08
[1], x2 = 0.8816	–	5.66e-07 ± 1.8e-08
[1], x2 = 0.9135	–	4.36e-07 ± 1.8e-08
[1], x2 = 0.9437	–	3.04e-07 ± 1.7e-08
[1], x2 = 0.972	–	1.85e-07 ± 1.6e-08
[2], x2 = 0.1025	0.107 ± 0.00206	–
[2], x2 = 0.2064	0.193 ± 0.00335	–
[2], x2 = 0.3097	0.268 ± 0.00454	–
[2], x2 = 0.4012	0.318 ± 0.00526	–
[2], x2 = 0.4828	0.345 ± 0.00574	–
[2], x2 = 0.5438	0.354 ± 0.00598	–
[2], x2 = 0.5906	0.353 ± 0.00574	–
[2], x2 = 0.6218	0.348 ± 0.00574	–
[2], x2 = 0.6489	0.34 ± 0.00574	–
[2], x2 = 0.6819	0.322 ± 0.00526	–
[2], x2 = 0.7208	0.3 ± 0.00502	–
[2], x2 = 0.7615	0.276 ± 0.00454	–
[2], x2 = 0.8015	0.244 ± 0.00406	–
[2], x2 = 0.8436	0.205 ± 0.00359	–
[2], x2 = 0.8861	0.163 ± 0.00287	–
[2], x2 = 0.9283	0.11 ± 0.00215	–
[2], x2 = 0.9659	0.0516 ± 0.00131	–

CCCCOC(=O)CC [butyl propanoate] + CCCCCCC
Conditions	excess molar enthalpy [kcal/mol]	excess molar volume [m3/mol]
[1], x1 = 0.0273	–	5.6e-08 ± 1.6e-08
[1], x1 = 0.0572	–	1.25e-07 ± 1.6e-08
[1], x1 = 0.1181	–	2.05e-07 ± 1.6e-08
[1], x1 = 0.1785	–	2.96e-07 ± 1.7e-08
[1], x1 = 0.2334	–	3.5e-07 ± 1.7e-08
[1], x1 = 0.2923	–	3.76e-07 ± 1.7e-08
[1], x1 = 0.3518	–	3.93e-07 ± 1.7e-08
[1], x1 = 0.4089	–	4e-07 ± 1.7e-08
[1], x1 = 0.4681	–	3.95e-07 ± 1.7e-08
[1], x1 = 0.528	–	3.75e-07 ± 1.7e-08
[1], x1 = 0.586	–	3.44e-07 ± 1.7e-08
[1], x1 = 0.6449	–	3.06e-07 ± 1.7e-08
[1], x1 = 0.7036	–	2.6e-07 ± 1.7e-08
[1], x1 = 0.7666	–	2.08e-07 ± 1.6e-08
[1], x1 = 0.8207	–	1.76e-07 ± 1.6e-08
[1], x1 = 0.8838	–	1.05e-07 ± 1.6e-08
[1], x1 = 0.937	–	7.2e-08 ± 1.6e-08
[2], x1 = 0.0476	0.0417 ± 0.00105	–
[2], x1 = 0.1067	0.0841 ± 0.0017	–
[2], x1 = 0.1732	0.121 ± 0.00225	–
[2], x1 = 0.2357	0.146 ± 0.00263	–
[2], x1 = 0.2979	0.163 ± 0.00287	–
[2], x1 = 0.3579	0.176 ± 0.00311	–
[2], x1 = 0.4131	0.183 ± 0.00311	–
[2], x1 = 0.4328	0.185 ± 0.00311	–
[2], x1 = 0.464	0.186 ± 0.00335	–
[2], x1 = 0.475	0.187 ± 0.00335	–
[2], x1 = 0.5206	0.186 ± 0.00335	–
[2], x1 = 0.5701	0.181 ± 0.00311	–
[2], x1 = 0.6256	0.171 ± 0.00311	–
[2], x1 = 0.6846	0.156 ± 0.00287	–
[2], x1 = 0.7498	0.134 ± 0.00239	–
[2], x1 = 0.8152	0.106 ± 0.00203	–
[2], x1 = 0.8835	0.0717 ± 0.00151	–
[2], x1 = 0.9449	0.0357 ± 0.000956	–

CCOC(=O)CC [ethyl propanoate] + CCCCCCC
Conditions	excess molar enthalpy [kcal/mol]	excess molar volume [m3/mol]
[1], x1 = 0.0401	–	1.58e-07 ± 1.6e-08
[1], x1 = 0.0797	–	3.09e-07 ± 1.7e-08
[1], x1 = 0.1474	–	5.09e-07 ± 1.8e-08
[1], x1 = 0.2182	–	6.76e-07 ± 1.9e-08
[1], x1 = 0.2873	–	7.86e-07 ± 1.9e-08
[1], x1 = 0.3497	–	8.53e-07 ± 1.9e-08
[1], x1 = 0.4098	–	8.95e-07 ± 2e-08
[1], x1 = 0.5276	–	8.77e-07 ± 2e-08
[1], x1 = 0.5897	–	8.41e-07 ± 1.9e-08
[1], x1 = 0.6453	–	7.71e-07 ± 1.9e-08
[1], x1 = 0.701	–	7.23e-07 ± 1.9e-08
[1], x1 = 0.7534	–	6.41e-07 ± 1.8e-08
[1], x1 = 0.808	–	5.27e-07 ± 1.8e-08
[1], x1 = 0.8554	–	4.12e-07 ± 1.7e-08
[1], x1 = 0.9045	–	2.9e-07 ± 1.7e-08
[1], x1 = 0.9534	–	1.5e-07 ± 1.6e-08
[2], x1 = 0.0724	0.0766 ± 0.0016	–
[2], x1 = 0.1469	0.142 ± 0.00263	–
[2], x1 = 0.2238	0.196 ± 0.00335	–
[2], x1 = 0.294	0.234 ± 0.00406	–
[2], x1 = 0.3653	0.261 ± 0.0043	–
[2], x1 = 0.4286	0.273 ± 0.00454	–
[2], x1 = 0.4855	0.277 ± 0.00454	–
[2], x1 = 0.5345	0.274 ± 0.00454	–
[2], x1 = 0.5733	0.267 ± 0.00454	–
[2], x1 = 0.5847	0.264 ± 0.00454	–
[2], x1 = 0.6302	0.254 ± 0.0043	–
[2], x1 = 0.682	0.237 ± 0.00406	–
[2], x1 = 0.7393	0.213 ± 0.00359	–
[2], x1 = 0.7978	0.181 ± 0.00311	–
[2], x1 = 0.8563	0.142 ± 0.00263	–
[2], x1 = 0.9088	0.0966 ± 0.00191	–
[2], x1 = 0.963	0.0455 ± 0.00115	–

CCCCCOC(=O)CC [pentyl propanoate] + CCCCCCCCC
Conditions	excess molar enthalpy [kcal/mol]	excess molar volume [m3/mol]
[1], x1 = 0.0661	–	1.34e-07 ± 1.6e-08
[1], x1 = 0.1312	–	2.47e-07 ± 1.7e-08
[1], x1 = 0.1902	–	3.19e-07 ± 1.7e-08
[1], x1 = 0.2517	–	3.88e-07 ± 1.7e-08
[1], x1 = 0.3122	–	4.31e-07 ± 1.8e-08
[1], x1 = 0.3722	–	4.6e-07 ± 1.8e-08
[1], x1 = 0.4344	–	4.77e-07 ± 1.8e-08
[1], x1 = 0.4911	–	4.73e-07 ± 1.8e-08
[1], x1 = 0.5498	–	4.62e-07 ± 1.8e-08
[1], x1 = 0.6072	–	4.37e-07 ± 1.8e-08
[1], x1 = 0.6646	–	3.9e-07 ± 1.7e-08
[1], x1 = 0.7225	–	3.49e-07 ± 1.7e-08
[1], x1 = 0.778	–	2.91e-07 ± 1.7e-08
[1], x1 = 0.8335	–	2.41e-07 ± 1.7e-08
[1], x1 = 0.8887	–	1.69e-07 ± 1.6e-08
[1], x1 = 0.9434	–	1.01e-07 ± 1.6e-08
[2], x1 = 0.0584	0.0448 ± 0.0011	–
[2], x1 = 0.1266	0.0882 ± 0.00174	–
[2], x1 = 0.1948	0.124 ± 0.00229	–
[2], x1 = 0.2641	0.151 ± 0.00263	–
[2], x1 = 0.329	0.168 ± 0.00311	–
[2], x1 = 0.3907	0.178 ± 0.00311	–
[2], x1 = 0.4467	0.183 ± 0.00311	–
[2], x1 = 0.4973	0.184 ± 0.00311	–
[2], x1 = 0.5431	0.181 ± 0.00311	–
[2], x1 = 0.576	0.176 ± 0.00311	–
[2], x1 = 0.5969	0.173 ± 0.00311	–
[2], x1 = 0.6505	0.161 ± 0.00287	–
[2], x1 = 0.7085	0.145 ± 0.00263	–
[2], x1 = 0.7683	0.124 ± 0.00229	–
[2], x1 = 0.8297	0.0982 ± 0.00191	–
[2], x1 = 0.8907	0.067 ± 0.00143	–
[2], x1 = 0.9492	0.0339 ± 0.000932	–

CCCOC(=O)CC [propyl propanoate] + CCCCCCC
Conditions	excess molar enthalpy [kcal/mol]	excess molar volume [m3/mol]
[1], x1 = 0.0283	–	9e-08 ± 1.6e-08
[1], x1 = 0.066	–	2.02e-07 ± 1.6e-08
[1], x1 = 0.1305	–	3.13e-07 ± 1.7e-08
[1], x1 = 0.1912	–	4.11e-07 ± 1.7e-08
[1], x1 = 0.2529	–	4.97e-07 ± 1.8e-08
[1], x1 = 0.3157	–	5.6e-07 ± 1.8e-08
[1], x1 = 0.3768	–	5.86e-07 ± 1.8e-08
[1], x1 = 0.437	–	6.03e-07 ± 1.8e-08
[1], x1 = 0.4973	–	6.01e-07 ± 1.8e-08
[1], x1 = 0.5557	–	5.81e-07 ± 1.8e-08
[1], x1 = 0.6132	–	5.43e-07 ± 1.8e-08
[1], x1 = 0.6703	–	4.91e-07 ± 1.8e-08
[1], x1 = 0.7248	–	4.24e-07 ± 1.7e-08
[1], x1 = 0.7801	–	3.67e-07 ± 1.7e-08
[1], x1 = 0.8355	–	2.94e-07 ± 1.7e-08
[1], x1 = 0.8887	–	2.07e-07 ± 1.6e-08
[1], x1 = 0.9444	–	1.24e-07 ± 1.6e-08
[2], x1 = 0.0639	0.0623 ± 0.00136	–
[2], x1 = 0.1325	0.109 ± 0.00208	–
[2], x1 = 0.2009	0.149 ± 0.00263	–
[2], x1 = 0.273	0.179 ± 0.00311	–
[2], x1 = 0.338	0.198 ± 0.00335	–
[2], x1 = 0.3985	0.208 ± 0.00359	–
[2], x1 = 0.4549	0.215 ± 0.00359	–
[2], x1 = 0.5052	0.218 ± 0.00382	–
[2], x1 = 0.5147	0.218 ± 0.00382	–
[2], x1 = 0.5577	0.214 ± 0.00359	–
[2], x1 = 0.6066	0.207 ± 0.00359	–
[2], x1 = 0.6615	0.194 ± 0.00335	–
[2], x1 = 0.7197	0.173 ± 0.00311	–
[2], x1 = 0.7781	0.147 ± 0.00263	–
[2], x1 = 0.8381	0.115 ± 0.00217	–
[2], x1 = 0.8975	0.0783 ± 0.0016	–
[2], x1 = 0.9534	0.0399 ± 0.00103	–
